The results in this text go back to PMC6556873, “Rapid Covalent-Probe Discovery by Electrophile-Fragment Screening” (Journal of the American Chemical Society, 2019).

Where two headings read alike, the source gives them in different places.

Broadly, the viability is a read-out of living cells in per cent, often relative to untreated cells.

Data set [1] can be described thus: in vitro. Set-up: species or system HB2, HEK293. The settings on record: human, ccd841 cells.
The target of data set [2] is T1, OTUB2 (OTUB2A) (Homo sapiens, UniProt Q96DC9).
T1 construct: full length residues 1-234, E. coli BL21(DE3)-R3, His tag removed by TEV, construct 27312 Da
T1 sequence (Q96DC9 1-234): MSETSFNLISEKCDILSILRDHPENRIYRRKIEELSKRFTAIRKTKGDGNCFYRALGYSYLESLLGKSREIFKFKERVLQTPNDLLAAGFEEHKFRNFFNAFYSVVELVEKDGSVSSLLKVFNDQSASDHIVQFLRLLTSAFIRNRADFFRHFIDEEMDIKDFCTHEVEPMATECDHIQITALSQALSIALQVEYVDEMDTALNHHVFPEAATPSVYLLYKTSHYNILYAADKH
The arrangement: Intact protein LC/MS covalent labelling, fragments in pools of five, 200 uM each, 4 °C. As to conditions: 24 h, 4 °C, pool of five; 200 µM; covalent.

Data set [3] concerns the target T2, BSA (Bos taurus, UniProt P02769).
T2 construct: gene ALB
The arrangement: Intact protein LC/MS covalent labelling, fragments in pools of five, 200 uM each, 4 °C. The settings on record: 24 h, 4 °C, pool of five; 200 µM; covalent.

Data set [4] concerns the target T3, NNMT (hNNMT) (Homo sapiens, UniProt P40261).
T3 construct: wild type, N-terminal His6 tag kept (no cleavage described), E. coli, construct 31248 Da
T3 sequence (P40261 1-264): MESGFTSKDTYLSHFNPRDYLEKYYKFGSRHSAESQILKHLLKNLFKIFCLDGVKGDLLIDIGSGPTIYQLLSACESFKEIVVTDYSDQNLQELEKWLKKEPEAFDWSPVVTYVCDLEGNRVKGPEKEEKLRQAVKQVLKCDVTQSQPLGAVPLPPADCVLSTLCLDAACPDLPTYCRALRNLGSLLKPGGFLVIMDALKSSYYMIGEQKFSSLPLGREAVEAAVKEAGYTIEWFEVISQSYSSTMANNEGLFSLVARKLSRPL
Set-up: Intact protein LC/MS covalent labelling, fragments in pools of five, 200 uM each, 4 °C. The settings on record: 24 h, 4 °C, pool of five; 200 µM; covalent.

For data set [5], the target named is T4, PCAF (Homo sapiens, UniProt Q92831).
T4 construct: gene KAT2B
Set-up: Intact protein LC/MS covalent labelling, fragments in pools of five, 200 uM each, 4 °C. As to conditions: 24 h, 4 °C, pool of five; 200 µM; covalent.

Data set [6] concerns the target T5, NUDT7 (Homo sapiens, UniProt P0C024).
T5 construct: residues 14-235, E. coli, pNIC28-Bsa4, N-terminal His6 tag removed by TEV, construct 26672 Da
The arrangement: Intact protein LC/MS covalent labelling, fragments in pools of five, 200 uM each, 4 °C. The settings on record: 24 h, 4 °C, pool of five; 200 µM; covalent.

Data set [7] can be described thus: in vitro. The arrangement: species or system HB2, CCD841. The settings on record: human, hek293 cells.
Data set [8] can be described thus: in vitro. Set-up: species or system CCD841, HEK293. As to conditions: human, hb2 cells, read-out: HB-2 Cells Viability (%).

T5 sequence (P0C024 14-235): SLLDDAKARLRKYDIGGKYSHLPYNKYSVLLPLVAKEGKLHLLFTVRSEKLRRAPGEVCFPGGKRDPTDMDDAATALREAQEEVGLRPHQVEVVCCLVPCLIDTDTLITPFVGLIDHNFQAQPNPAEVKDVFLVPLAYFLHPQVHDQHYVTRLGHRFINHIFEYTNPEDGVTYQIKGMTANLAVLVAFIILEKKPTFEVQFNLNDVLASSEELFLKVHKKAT
T4 sequence (Q92831 whole entry): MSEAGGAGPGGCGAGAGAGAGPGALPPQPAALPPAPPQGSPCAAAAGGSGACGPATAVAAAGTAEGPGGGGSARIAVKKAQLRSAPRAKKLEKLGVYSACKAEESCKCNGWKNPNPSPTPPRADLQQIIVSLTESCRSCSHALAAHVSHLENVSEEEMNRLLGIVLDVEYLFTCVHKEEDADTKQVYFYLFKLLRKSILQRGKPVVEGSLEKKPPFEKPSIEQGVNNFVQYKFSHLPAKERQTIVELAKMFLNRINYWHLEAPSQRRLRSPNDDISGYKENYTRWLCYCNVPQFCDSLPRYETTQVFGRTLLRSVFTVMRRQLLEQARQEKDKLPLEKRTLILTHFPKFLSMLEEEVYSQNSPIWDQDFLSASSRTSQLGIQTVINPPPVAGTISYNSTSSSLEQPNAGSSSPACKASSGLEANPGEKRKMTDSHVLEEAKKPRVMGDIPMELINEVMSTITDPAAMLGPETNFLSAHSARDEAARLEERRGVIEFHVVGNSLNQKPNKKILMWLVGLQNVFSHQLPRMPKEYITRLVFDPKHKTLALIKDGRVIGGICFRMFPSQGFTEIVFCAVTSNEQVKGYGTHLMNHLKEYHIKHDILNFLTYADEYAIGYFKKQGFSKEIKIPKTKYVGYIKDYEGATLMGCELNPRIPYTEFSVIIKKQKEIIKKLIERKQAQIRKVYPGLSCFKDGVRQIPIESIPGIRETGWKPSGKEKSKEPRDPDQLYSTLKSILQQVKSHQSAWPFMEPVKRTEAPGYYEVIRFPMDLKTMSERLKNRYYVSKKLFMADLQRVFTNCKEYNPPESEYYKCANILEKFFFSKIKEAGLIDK
T2 sequence (P02769 whole entry): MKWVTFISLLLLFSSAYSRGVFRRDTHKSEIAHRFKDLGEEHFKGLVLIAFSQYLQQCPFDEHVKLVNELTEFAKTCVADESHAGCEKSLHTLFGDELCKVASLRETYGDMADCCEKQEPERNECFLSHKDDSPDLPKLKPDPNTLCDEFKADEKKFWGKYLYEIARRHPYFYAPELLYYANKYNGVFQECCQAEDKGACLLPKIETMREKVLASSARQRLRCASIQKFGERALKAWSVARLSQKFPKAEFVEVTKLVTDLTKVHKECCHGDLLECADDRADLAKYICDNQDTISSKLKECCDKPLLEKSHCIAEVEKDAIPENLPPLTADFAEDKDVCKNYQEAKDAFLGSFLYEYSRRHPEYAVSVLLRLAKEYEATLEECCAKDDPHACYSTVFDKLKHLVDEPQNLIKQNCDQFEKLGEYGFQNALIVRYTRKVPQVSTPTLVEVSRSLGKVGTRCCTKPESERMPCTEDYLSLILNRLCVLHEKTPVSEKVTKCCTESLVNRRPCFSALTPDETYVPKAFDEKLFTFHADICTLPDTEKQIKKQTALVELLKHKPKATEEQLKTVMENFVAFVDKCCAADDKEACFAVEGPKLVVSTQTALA

As for `O=C(CCl)NCc1cc(Br)cs1` [PCM-0103050], the viability at 48 h, 10 µM in data set [1] turned out to be 75.7%; in data set [7], 53.1%; in data set [8], 87%. Further, the OTUB2 in data set [2] stood at 0.84. In data set [3], this molecule showed a BSA of 0. Further, the NNMT in data set [4] was 0. For the same molecule, the PCAF in data set [5] is reported as 0. Moreover, the NUDT7 in data set [6] was determined as 0.13.

`O=C(CCl)Nc1cccc(C(=O)N2CCSCC2)c1` [PCM-0103072]: the viability at 48 h, 10 µM is 55.2% in data set [1], 7.8% in data set [7] and 34.5% in data set [8]. This molecule returned an OTUB2 in data set [2] of 0. Moreover, the BSA in data set [3] amounted to 0. Besides, the NNMT in data set [4] was 0. In data set [5], this molecule returned a PCAF of 0. This molecule gave an NUDT7 in data set [6] of 0.

`O=C(CCl)Nc1oncc1-c1ccccc1` [PCM-0102746]: the viability at 48 h, 10 µM in data set [1] is 71.8%; in data set [7] it was 73.3%; in data set [8], 72.1%. In data set [2], this molecule returned an OTUB2 of 0.64. This molecule also displayed a BSA in data set [3] of 0. For the same molecule, in data set [4], the NNMT is 0.87. The molecule also gave a PCAF in data set [5] of 0. This molecule displayed an NUDT7 in data set [6] of 0.

For the molecule `O=C(CCl)N1Cc2ccccc2C(c2ccccc2)C1` (stereo not drawn) [PCM-0102432], the viability at 48 h, 10 µM amounted to 12.4% in data set [1], 20.6% in data set [7] and 38.2% in data set [8]. For the same molecule, the OTUB2 in data set [2] was determined as 0.17. The molecule further yielded a BSA in data set [3] of 0. In data set [4], this molecule gave an NNMT of 0.65. The same molecule gave a PCAF in data set [5] of 0. In data set [6], this molecule gave an NUDT7 of 0.33.

Turning to `CS(=O)(=O)c1ccc(F)c(NC(=O)CCl)c1` [PCM-0103018], the viability at 48 h, 10 µM in data set [1] was found to be 53.6%; in data set [7], 24.3%; in data set [8], 57.6%. The OTUB2 in data set [2] is reported as 0.16. The molecule also had a BSA in data set [3] of 0. In addition, the NNMT in data set [4] is reported as 0. In addition, the PCAF in data set [5] stood at 0. The same molecule showed an NUDT7 in data set [6] of 0.

For the molecule `COc1ccc(Cl)cc1C(=O)NNC(=O)CCl` [PCM-0102763], the viability at 48 h, 10 µM in data set [1] came to 13.4%; in data set [7], 25.1%; in data set [8], 73.6%. In addition, in data set [2], the OTUB2 is on record as 0.64. In data set [3], this molecule gave a BSA of 0. In data set [4], this molecule displayed an NNMT of 0. The PCAF in data set [5] is on record as 0. Moreover, the NUDT7 in data set [6] came to 0.1.

As to `CC(NC(=O)CCl)c1ccco1` (stereo not drawn) [PCM-0102798], the viability at 48 h, 10 µM in data set [1] worked out at 97.1%; in data set [7], 88.4%; in data set [8], 95.8%. The OTUB2 in data set [2] stood at 0.19. For the same molecule, in data set [3], the BSA was found to be 0. This molecule came in with an NNMT in data set [4] of 0. In data set [5], this molecule had a PCAF of 0. In addition, the NUDT7 in data set [6] is 0.14.

As to `C=CC(=O)N1CCCc2cc(C(=O)O)ccc21` [PCM-0102421], the viability at 48 h, 10 µM in data set [1] was 109%; in data set [7] it was 87.2%; in data set [8], 96.3%. This molecule also gave an OTUB2 in data set [2] of 0. Also, in data set [3], the BSA is reported as 0. In addition, the NNMT in data set [4] was found to be 0.19. For the same molecule, in data set [5], the PCAF is given as 0. Besides, in data set [6], the NUDT7 was found to be 0.

Consider `C=CC(=O)N1CCC(c2noc(C3CC3)n2)CC1` [PCM-0102810], for which the viability at 48 h, 10 µM in data set [1] was found to be 103%; in data set [7] it was 94.1%; in data set [8] it was 103%. The molecule further yielded an OTUB2 in data set [2] of 0. This molecule showed a BSA in data set [3] of 0. Besides, the NNMT in data set [4] was 0. This molecule also yielded a PCAF in data set [5] of 0. Moreover, the NUDT7 in data set [6] was determined as 0.06.

Regarding `CC(C)c1cccc(NC(=O)CCl)c1` [PCM-0102429], the results for the viability at 48 h, 10 µM in data set [1], in data set [7] and in data set [8] were 57.3%, 17.7% and 17.7%, respectively. Further, in data set [2], the OTUB2 turned out to be 0.23. For the same molecule, the BSA in data set [3] is on record as 0. The molecule also displayed an NNMT in data set [4] of 0.52. Besides, the PCAF in data set [5] is listed as 0. For the same molecule, in data set [6], the NUDT7 is 0.1.

For `Cl.O=C(CCl)NC1CCN(C2CC2)CC1` [PCM-0103055], the viability at 48 h, 10 µM in data set [1] was 83%; in data set [7] it was 92.7%; in data set [8], 98.2%. The same molecule showed an OTUB2 in data set [2] of 0. The molecule also returned a BSA in data set [3] of 0. In addition, in data set [4], the NNMT worked out at 0.23. Moreover, in data set [5], the PCAF came out at 0. The same molecule returned an NUDT7 in data set [6] of 0.

With `CN(CC1CC1)C(=O)CCl` [PCM-0102714], the figures for the viability at 48 h, 10 µM in data set [1], in data set [7] and in data set [8] were 84.8%, 88.3% and 97%, respectively. The same molecule gave an OTUB2 in data set [2] of 0. Moreover, the BSA in data set [3] stood at 0. Further, the NNMT in data set [4] worked out at 0. For the same molecule, the PCAF in data set [5] is given as 0. In data set [6], this molecule had an NUDT7 of 0.

Regarding `Cl.O=C(CCl)N1CCN(Cc2ccc(Br)s2)CC1` [PCM-0102169], the viability at 48 h, 10 µM in data set [1] was found to be 33%; in data set [7], 8.6%; in data set [8] it was 8.8%. Moreover, in data set [2], the OTUB2 came to 0. This molecule displayed a BSA in data set [3] of 0. For the same molecule, the NNMT in data set [4] was determined as 0. In data set [5], this molecule showed a PCAF of 0. In data set [6], this molecule came in with an NUDT7 of 0.

Turning to `C=CC(=O)NCC1CCCc2sc(C)nc21` (stereo not drawn) [PCM-0102952], the figures for the viability at 48 h, 10 µM in data set [1], in data set [7] and in data set [8] were 114%, 95.2% and 97.6%, respectively. Moreover, the OTUB2 in data set [2] is 0. In data set [3], this molecule displayed a BSA of 0. This molecule also yielded an NNMT in data set [4] of 0. The molecule also displayed a PCAF in data set [5] of 0. For the same molecule, the NUDT7 in data set [6] is 0.

Consider `CS(=O)(=O)c1cccc(NC(=O)CCl)c1` [PCM-0102407], for which the viability at 48 h, 10 µM was 47% in data set [1], 1.4% in data set [7] and 26.4% in data set [8]. Also, the OTUB2 in data set [2] is given as 0.33. For the same molecule, the BSA in data set [3] is 0. Besides, the NNMT in data set [4] turned out to be 0. Further, the PCAF in data set [5] stood at 0. The molecule also had an NUDT7 in data set [6] of 0.

As to `O=C(CCl)Nc1ccccc1N1CCCC1` [PCM-0102135], the results for the viability at 48 h, 10 µM in data set [1], in data set [7] and in data set [8] were 95%, 91.3% and 98.5%, respectively. The molecule further gave an OTUB2 in data set [2] of 0. This molecule also yielded a BSA in data set [3] of 0. Moreover, the NNMT in data set [4] was found to be 0. The molecule also had a PCAF in data set [5] of 0. Also, the NUDT7 in data set [6] amounted to 0.

As to `C=CC(=O)N1Cc2ccc(S(=O)(=O)N(C)C)cc2C1` [PCM-0102718], the viability at 48 h, 10 µM amounted to 99.7% in data set [1], 73.6% in data set [7] and 97.4% in data set [8]. The same molecule displayed an OTUB2 in data set [2] of 0. In data set [3], this molecule registered a BSA of 0.3. The same molecule had an NNMT in data set [4] of 0. For the same molecule, the PCAF in data set [5] was 0. This molecule gave an NUDT7 in data set [6] of 0.

In the case of `Cc1ccc(NC(=O)CCl)c(F)c1` [PCM-0103028], the viability at 48 h, 10 µM in data set [1] turned out to be 58.4%; in data set [7], 29%; in data set [8], 42.3%. The OTUB2 in data set [2] was determined as 0.14. Also, the BSA in data set [3] worked out at 0.18. The NNMT in data set [4] came to 0.23. The PCAF in data set [5] worked out at 0. The same molecule yielded an NUDT7 in data set [6] of 0.
